Consider 15 compounds from ChEMBL document CHEMBL3301562, “MMV Box screening against Plasmodium falciparum protein kinases and aminoacyl tRNA synthetases”.

Holding throughout (type): functional
Assay [1] deals with Calcium-dependent protein kinase 1 (Plasmodium falciparum, UniProt P62344). Kind of assay: MMV: CDPK1 Protein kinase inhibition assay using recombinant PfCDPK1, syntide 2 peptide substrate, ATP and KinaseGlo to measure % inhibition at 1 uM MMV box compound.
Assay [2] has as its target T1, Cdk-related protein kinase 6 (Plasmodium falciparum, UniProt O77239).
T1 sequence (O77239 whole entry): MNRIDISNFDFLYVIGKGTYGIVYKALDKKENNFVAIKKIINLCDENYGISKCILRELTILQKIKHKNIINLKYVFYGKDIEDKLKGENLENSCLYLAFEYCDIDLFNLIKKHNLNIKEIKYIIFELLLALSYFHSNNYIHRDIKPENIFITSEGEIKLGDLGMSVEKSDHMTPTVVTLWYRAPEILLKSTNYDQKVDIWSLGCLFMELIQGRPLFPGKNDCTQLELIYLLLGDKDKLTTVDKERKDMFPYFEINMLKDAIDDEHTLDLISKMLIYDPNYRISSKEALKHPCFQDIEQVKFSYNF
As to the kind of experiment: Final concentrations were 1.5 uM ATP, 5 mM MnCl2, and 15 ug/ml PK6 in a buffer of 100 mM Tris-HCl (pH 7.5). 50 ug/mL MBP was provided as the substrate; 10 uM staurosporine was used as a control inhibitor. Incubation time was 3 hours and 40 minutes.The catalytic activity of each kinase was considered proportional to ATP consumed, as determined from measurements of residual [ATP] with the luciferase-based reagent Kinase-Glo (Promega) following incubation. Luminescence (proportional to residual [ATP]) was measured on the plate readers FLx800 (BioTek Instruments, Winooski, VT, USA) and MicroBeta2.

The target in assay [3] is T2, Mitogen-activated protein kinase (Plasmodium falciparum, UniProt Q25917).
T2 sequence (Q25917 whole entry): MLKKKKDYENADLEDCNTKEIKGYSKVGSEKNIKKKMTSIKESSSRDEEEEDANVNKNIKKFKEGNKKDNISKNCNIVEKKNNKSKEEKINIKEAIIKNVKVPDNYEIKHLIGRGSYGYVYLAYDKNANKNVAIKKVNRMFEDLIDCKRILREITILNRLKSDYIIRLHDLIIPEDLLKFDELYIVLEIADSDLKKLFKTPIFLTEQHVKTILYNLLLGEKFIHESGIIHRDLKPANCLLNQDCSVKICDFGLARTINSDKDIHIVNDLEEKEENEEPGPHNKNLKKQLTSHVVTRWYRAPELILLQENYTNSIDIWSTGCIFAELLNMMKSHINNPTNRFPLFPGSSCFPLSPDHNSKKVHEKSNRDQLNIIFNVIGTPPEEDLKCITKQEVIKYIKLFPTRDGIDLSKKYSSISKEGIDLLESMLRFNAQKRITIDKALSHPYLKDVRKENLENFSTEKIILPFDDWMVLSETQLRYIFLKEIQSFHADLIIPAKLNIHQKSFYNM
As to the kind of experiment: Final concentrations were 1 uM ATP, 0.5 mM DTT, 1 mM MgCl2, 0.5 mg/mL BSA, and 10 ug/ml MAP2 in a buffer of 50 mM HEPES (pH 7.0). 0.5 mg/mL histone III-S served as the substrate (13); 100 uM AMP-PNP, an ATP analog, was used as a control inhibitor. Incubation time was 4 hours.

The target in assay [4] is Lysine--tRNA ligase (Plasmodium falciparum (isolate 3D7), UniProt Q8IDJ8). As to the kind of experiment: MMV: KRS recombinant Plasmodium falciparum Lysyl-tRNA-synthetase, assay with yeast tRNA, ATP, and lysine and 3 uM MMV malaria box compound, assay read out with kinase glo as % inhibition.
Assay [5] addresses T3, Calcium-dependent protein kinase 4 (Plasmodium falciparum (isolate 3D7), UniProt Q8IBS5).
T3 sequence (Q8IBS5 whole entry): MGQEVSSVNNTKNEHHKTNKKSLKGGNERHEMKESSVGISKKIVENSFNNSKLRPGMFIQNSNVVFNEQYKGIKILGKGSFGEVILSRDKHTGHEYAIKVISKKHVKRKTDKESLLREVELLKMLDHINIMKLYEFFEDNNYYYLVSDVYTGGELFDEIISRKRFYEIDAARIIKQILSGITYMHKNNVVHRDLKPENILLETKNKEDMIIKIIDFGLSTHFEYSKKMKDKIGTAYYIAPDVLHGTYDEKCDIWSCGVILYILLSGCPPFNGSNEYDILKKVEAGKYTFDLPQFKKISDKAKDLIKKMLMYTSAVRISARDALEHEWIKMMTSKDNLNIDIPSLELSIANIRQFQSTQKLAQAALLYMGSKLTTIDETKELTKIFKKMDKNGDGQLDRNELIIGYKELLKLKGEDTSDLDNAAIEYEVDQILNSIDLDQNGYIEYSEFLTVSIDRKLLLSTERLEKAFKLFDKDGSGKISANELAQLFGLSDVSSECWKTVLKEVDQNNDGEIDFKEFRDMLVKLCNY
As to the kind of experiment: MMV: CDPK4 Protein kinase inhibition assay using recombinant PfCDPK4, syntide2 peptide substrate, ATP and KinaseGlo to measure % inhibition at 1 uM MMV box compound.

Assay [6] deals with T4, Putative uncharacterized protein pk7 (Plasmodium falciparum, UniProt O96214).
T4 sequence (O96214 whole entry): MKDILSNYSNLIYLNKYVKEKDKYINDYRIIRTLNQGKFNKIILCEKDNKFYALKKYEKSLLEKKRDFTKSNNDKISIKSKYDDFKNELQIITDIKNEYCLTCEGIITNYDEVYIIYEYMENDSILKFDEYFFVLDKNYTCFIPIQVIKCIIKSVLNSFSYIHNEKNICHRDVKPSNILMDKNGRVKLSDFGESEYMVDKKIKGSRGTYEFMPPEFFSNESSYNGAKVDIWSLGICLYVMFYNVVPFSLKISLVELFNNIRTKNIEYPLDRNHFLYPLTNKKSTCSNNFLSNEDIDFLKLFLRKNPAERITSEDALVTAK
Kind of assay: Final concentrations were 1 uM ATP, 2 mM DTT, 20 mM MgCl2, 2 mM MnCl2, 0.01% BSA, and 6 ug/ml PK7, in a buffer of 20 mM Tris-HCl (pH 7.5). The enzyme itself was the only substrate present (since autophosphorylation occurs); 100 uM 1NA-PP1 was used as a control inhibitor. Incubation time was 3 hours.

In assay [7] the target is T5, Proline--tRNA ligase (Plasmodium falciparum (isolate 3D7), UniProt Q8I5R7).
T5 sequence (Q8I5R7 whole entry): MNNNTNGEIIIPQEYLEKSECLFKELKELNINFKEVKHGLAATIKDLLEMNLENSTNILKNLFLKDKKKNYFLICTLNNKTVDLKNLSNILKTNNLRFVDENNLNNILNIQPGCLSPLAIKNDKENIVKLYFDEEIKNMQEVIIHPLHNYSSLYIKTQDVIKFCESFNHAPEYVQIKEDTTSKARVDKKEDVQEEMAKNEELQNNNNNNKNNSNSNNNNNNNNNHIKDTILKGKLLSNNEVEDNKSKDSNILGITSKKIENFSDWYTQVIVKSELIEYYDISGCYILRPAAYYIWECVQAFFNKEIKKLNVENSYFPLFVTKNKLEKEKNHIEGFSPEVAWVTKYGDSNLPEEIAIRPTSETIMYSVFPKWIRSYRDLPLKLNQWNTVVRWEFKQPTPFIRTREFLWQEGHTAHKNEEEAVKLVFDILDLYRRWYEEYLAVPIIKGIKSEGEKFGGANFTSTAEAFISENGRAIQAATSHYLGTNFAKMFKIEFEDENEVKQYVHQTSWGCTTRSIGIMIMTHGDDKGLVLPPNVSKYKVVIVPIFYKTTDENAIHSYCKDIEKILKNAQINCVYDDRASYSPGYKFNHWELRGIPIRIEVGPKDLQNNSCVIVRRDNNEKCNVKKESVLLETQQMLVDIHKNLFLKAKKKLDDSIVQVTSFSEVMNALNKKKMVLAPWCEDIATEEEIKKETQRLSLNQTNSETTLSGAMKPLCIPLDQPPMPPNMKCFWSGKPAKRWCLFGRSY
Kind of assay: MMV: ProRS recombinant Plasmodium falciparum Prolyl-tRNA-synthetase, assay with yeast tRNA, ATP, and proline and 3 uM MMV malaria box compound, assay read out with kinase glo as % inhibition.

Structures are written as SMILES.

Chain of Calcium-dependent protein kinase 1 (P62344 whole entry): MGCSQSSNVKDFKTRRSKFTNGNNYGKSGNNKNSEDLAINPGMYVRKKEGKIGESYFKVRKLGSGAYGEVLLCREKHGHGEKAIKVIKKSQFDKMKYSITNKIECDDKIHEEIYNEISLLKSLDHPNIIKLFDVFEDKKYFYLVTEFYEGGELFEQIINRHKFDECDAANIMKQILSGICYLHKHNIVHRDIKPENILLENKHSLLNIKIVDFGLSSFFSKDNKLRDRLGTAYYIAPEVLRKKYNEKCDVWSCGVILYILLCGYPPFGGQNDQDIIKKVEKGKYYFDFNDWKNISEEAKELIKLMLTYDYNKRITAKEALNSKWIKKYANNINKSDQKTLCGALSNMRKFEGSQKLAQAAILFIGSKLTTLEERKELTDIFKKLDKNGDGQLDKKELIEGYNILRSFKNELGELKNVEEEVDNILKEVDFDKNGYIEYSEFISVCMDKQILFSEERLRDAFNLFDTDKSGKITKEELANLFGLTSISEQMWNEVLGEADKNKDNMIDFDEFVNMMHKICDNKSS
Chain of Lysine--tRNA ligase (Q8IDJ8 whole entry): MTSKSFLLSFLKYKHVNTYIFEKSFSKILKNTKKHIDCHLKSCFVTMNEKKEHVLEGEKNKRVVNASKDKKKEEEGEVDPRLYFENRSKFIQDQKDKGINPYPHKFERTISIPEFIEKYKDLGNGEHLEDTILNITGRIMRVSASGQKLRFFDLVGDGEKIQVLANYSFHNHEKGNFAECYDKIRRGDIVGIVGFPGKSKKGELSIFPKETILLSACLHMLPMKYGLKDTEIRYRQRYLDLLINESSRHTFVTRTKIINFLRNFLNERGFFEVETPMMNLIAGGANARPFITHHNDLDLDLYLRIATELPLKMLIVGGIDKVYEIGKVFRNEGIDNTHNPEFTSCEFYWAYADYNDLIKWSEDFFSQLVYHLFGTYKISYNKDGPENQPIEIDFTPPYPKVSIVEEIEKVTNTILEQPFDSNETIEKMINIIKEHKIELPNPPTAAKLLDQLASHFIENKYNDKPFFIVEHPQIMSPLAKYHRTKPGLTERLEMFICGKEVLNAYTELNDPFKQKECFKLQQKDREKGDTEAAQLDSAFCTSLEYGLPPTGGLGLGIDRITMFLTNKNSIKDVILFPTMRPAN

For `CN1CCN(c2ncnc3c2[nH]c2ccc(Cl)cc23)CC1`, the IC50 was more than 1000 nM in assay [1]; more than 1000 nM in assay [2]; more than 1000 nM in assay [3]; more than 2500 nM in assay [4]; more than 1000 nM in assay [5]; more than 1000 nM in assay [6]. Further, in assay [7], the IC50 was more than 2500 nM.
For `CCOC(=O)C1(Cc2ccccc2)CCN(Cc2cccc(OC)c2O)CC1`, the IC50 in assay [1] was more than 1000 nM; in assay [2], more than 1000 nM; in assay [3], more than 1000 nM; in assay [4], more than 2500 nM; in assay [5], more than 1000 nM; in assay [6], more than 1000 nM. Also, the IC50 in assay [7] is more than 2500 nM.
As for `CC(=O)c1ccc(NC(=O)CSc2nc(-c3ccccc3Cl)ns2)cc1`, the IC50 is more than 1000 nM in assay [1]; more than 1000 nM in assay [2]; more than 1000 nM in assay [3]; more than 2500 nM in assay [4]; more than 1000 nM in assay [5]; more than 1000 nM in assay [6]. For the same compound, in assay [7], the 50% inhibitory concentration (IC50) is more than 2500 nM.
With `O=C(Nc1ccc(Br)cc1)Nc1cccc(Cl)c1`, the IC50 is more than 1000 nM in assay [1]; more than 1000 nM in assay [2]; more than 1000 nM in assay [3]; more than 2500 nM in assay [4]; more than 1000 nM in assay [5]; more than 1000 nM in assay [6]. Besides, in assay [7], the IC50 is more than 2500 nM.
For the compound `CCCCCCn1c(=N)n(CC(O)COc2cccc(C)c2)c2ccccc21` (stereo not given), the IC50 in assay [1] was more than 1000 nM; in assay [2], more than 1000 nM; in assay [3] it was more than 1000 nM; in assay [4] it was more than 2500 nM; in assay [5] it was more than 1000 nM; in assay [6], more than 1000 nM. Moreover, the IC50 in assay [7] was more than 2500 nM.
On to `CC1CCN(Cc2ccc(NC(=O)c3cc4ccc5cccnc5c4[nH]3)cc2)CC1`, for which the IC50 in assay [1] was more than 1000 nM; in assay [2], more than 1000 nM; in assay [3] it was more than 1000 nM; in assay [4] it was more than 2500 nM; in assay [5] it was more than 1000 nM; in assay [6], more than 1000 nM. For the same compound, the IC50 in assay [7] is more than 2500 nM.
For `CSc1ccccc1C(=O)Nc1nc(-c2ccccn2)cs1`, the IC50 was more than 1000 nM in assay [1]; more than 1000 nM in assay [2]; more than 1000 nM in assay [3]; more than 2500 nM in assay [4]; more than 1000 nM in assay [5]; more than 1000 nM in assay [6]. Moreover, the IC50 in assay [7] is more than 2500 nM.
As for `CCCOCc1cc(CN2CCN(c3cccc(Cl)c3)CC2)c(O)c2ncccc12`, the IC50 in assay [1] is more than 1000 nM; in assay [2], more than 1000 nM; in assay [3], more than 1000 nM; in assay [4], more than 2500 nM; in assay [5], more than 1000 nM; in assay [6], more than 1000 nM. Moreover, in assay [7], the IC50 was more than 2500 nM.
`COc1cccc(NC(=O)Cn2c(C)c(C#N)c3ccccc32)c1`: the IC50 in assay [1] was more than 1000 nM; in assay [2], more than 1000 nM; in assay [3], more than 1000 nM; in assay [4], more than 2500 nM; in assay [5] it was more than 1000 nM; in assay [6], more than 1000 nM. Also, the IC50 in assay [7] was more than 2500 nM.
As for `CCOc1ccc(Nc2ccnc3cc(Cl)ccc23)cc1`, the IC50 in assay [1] is more than 1000 nM; in assay [2], more than 1000 nM; in assay [3], more than 1000 nM; in assay [4], more than 2500 nM; in assay [5] it was more than 1000 nM; in assay [6], more than 1000 nM. In addition, the half-inhibitory concentration (IC50) in assay [7] is more than 2500 nM.
On to `O=C(Nc1ccc(N2CCCCC2)c(Cl)c1)c1ccc(Br)o1`, for which the IC50 in assay [1] is more than 1000 nM; in assay [2], more than 1000 nM; in assay [3], more than 1000 nM; in assay [4], more than 2500 nM; in assay [5] it was more than 1000 nM; in assay [6] it was more than 1000 nM. The half-maximal inhibitory concentration (IC50) in assay [7] was more than 2500 nM.
As to `CCOc1cc(Br)c(C(C)NC(=O)c2cccc(OC)c2)cc1OCC` (stereo not given), the IC50 was more than 1000 nM in assay [1]; more than 1000 nM in assay [2]; more than 1000 nM in assay [3]; more than 2500 nM in assay [4]; more than 1000 nM in assay [5]; more than 1000 nM in assay [6]. In addition, the 50% inhibitory concentration (IC50) in assay [7] was more than 2500 nM.
For `Cc1ccc(NC(=O)Nc2cccc(Cl)c2)cc1F`, the IC50 is more than 1000 nM in assay [1]; more than 1000 nM in assay [2]; more than 1000 nM in assay [3]; more than 2500 nM in assay [4]; more than 1000 nM in assay [5]; more than 1000 nM in assay [6]. In assay [7], the IC50 was more than 2500 nM.
Turning to `O=C(Nc1ccc(Cl)cc1C(=O)Nc1ccncc1)c1ccc(Cl)cc1Cl`, the half-maximal inhibitory concentration (IC50) in assay [1] is more than 1000 nM; in assay [2] it was more than 1000 nM; in assay [3] it was more than 1000 nM; in assay [4] it was more than 2500 nM; in assay [5], more than 1000 nM; in assay [6], more than 1000 nM. Further, the IC50 in assay [7] is more than 2500 nM.
With `CN1CCN(c2ccc(Nc3c4ccccc4nc4ccccc34)cc2)CC1`, the IC50 in assay [1] was more than 1000 nM; in assay [2], more than 1000 nM; in assay [3], more than 1000 nM; in assay [4], more than 2500 nM; in assay [5] it was more than 1000 nM; in assay [6] it was more than 1000 nM. Also, the IC50 in assay [7] is more than 2500 nM.
